Data published in patent US20200404914A1, “HERBICIDALLY ACTIVE BICYCLIC BENZAMIDES” (Bayer Aktiengesellschaft, priority 2018, published 2020).

How the values were obtained:
[1] = test system: monocotyledonous and dicotyledonous weed plants; experiment: Pre-emergence herbicidal action (greenhouse pot test, visual scoring after about 3 weeks); assay type: in vivo; conditions: for Herbicidal activity ABUTH (Abutilon theophrasti) / Herbicidal activity AMARE (Amaranthus retroflexus) / Herbicidal activity AVEFA (Avena fatua) / Herbicidal activity CYPES (Cyperus esculentus) / Herbicidal activity ECHCG (Echinochloa crus-galli) / Herbicidal activity MATIN (Matricaria inodora) / Herbicidal activity PHBPU (Ipomoea purpurea) / Herbicidal activity POLCO (Polygonum convolvulus) / Herbicidal activity SETVI (Setaria viridis) / Herbicidal activity STEME (Stellaria media) / Herbicidal activity VERPE (Veronica persica) / Herbicidal activity VIOTR (Viola tricolor): pre-emergence (PE)
Text: In the tables below, the following abbreviations are used: Undesired Plants/Weeds: [table] 1. Pre-Emergence Herbicidal Action and Crop Plant Compatibility Seeds of monocotyledonous and dicotyledonous weed plants and crop plants are placed in plastic or organic planting pots and covered with soil. The compounds of the invention, formulated in the form of wettable powders (WP) or as emulsion concentrates (EC), are then applied onto the surface of the covering soil as aqueous suspension or emulsion with addition of 0.5% additive at a water application rate of […] (converted). After the treatment, the pots are placed in a greenhouse and kept under good growth conditions for the trial plants. After about 3 weeks, the effect of the preparations is scored visually in comparison with untreated controls as percentages. The tables below show the herbicidal activity of numerous compounds according to the invention against important harmful plants. For example, 100% activity=the plants have died, 0% activity=like control plants.

[2] = test system: monocotyledonous and dicotyledonous weeds; experiment: Post-emergence herbicidal action (greenhouse pot test, visual rating after about 3 weeks); assay type: in vivo; conditions: for Herbicidal activity ABUTH (Abutilon theophrasti) / Herbicidal activity AMARE (Amaranthus retroflexus) / Herbicidal activity ECHCG (Echinochloa crus-galli) / Herbicidal activity MATIN (Matricaria inodora) / Herbicidal activity SETVI (Setaria viridis) / Herbicidal activity STEME (Stellaria media) / Herbicidal activity VERPE (Veronica persica) / Herbicidal activity VIOTR (Viola tricolor): post-emergence (PO)
Experimental: In the tables below, the following abbreviations are used: Undesired Plants/Weeds: [table] 2. Post-Emergence Herbicidal Action and Crop Plant Compatibility Seeds of monocotyledonous and dicotyledonous weeds and crop plants are placed in sandy loam in plastic or organic planting pots, covered with soil and cultivated in a greenhouse under controlled growth conditions. 2 to 3 weeks after sowing, the test plants are treated at the one-leaf stage. The compounds of the invention, formulated in the form of wettable powders (WP) or as emulsion concentrates (EC), are then sprayed onto the green parts of the plants as aqueous suspension or emulsion with addition of 0.5% additive at a water application rate of […] (converted). After the test plants had been kept in the greenhouse under optimum growth conditions for about 3 weeks, the activity of the preparations is rated visually in comparison to untreated controls. The tables below show the herbicidal activity of numerous compounds according to the invention against important harmful plants. For example, 100% activity=the plants have died, 0% activity=like control plants.

[3] = application rate 320, about 3 weeks
[4] = application rate 80, about 3 weeks
[5] = application rate 20, about 3 weeks
[6] = pre-emergence comparative experiment, dosage 320 g/ha
[7] = post-emergence comparative experiment, dosage 80 g/ha

Cn1nnnc1NC(=O)c1ccc(C(F)(F)F)c2c1OCCC[S+]2[O-] (stereo not drawn) [2-16]
Herbicidal activity ABUTH (Abutilon theophrasti) [1, 3]: 100% | Herbicidal activity AMARE (Amaranthus retroflexus) [1, 3]: 100% | Herbicidal activity AVEFA (Avena fatua) [1, 3]: 80% | Herbicidal activity CYPES (Cyperus esculentus) [1, 3]: 100% | Herbicidal activity ECHCG (Echinochloa crus-galli) [1, 3]: 100% | Herbicidal activity MATIN (Matricaria inodora) [1, 3]: 100% | Herbicidal activity PHBPU (Ipomoea purpurea) [1, 3]: 80% | Herbicidal activity POLCO (Polygonum convolvulus) [1, 3]: 80% | Herbicidal activity SETVI (Setaria viridis) [1, 3]: 100% | Herbicidal activity STEME (Stellaria media) [1, 3]: 100% | Herbicidal activity VERPE (Veronica persica) [1, 3]: 100% | Herbicidal activity VIOTR (Viola tricolor) [1, 3]: 100% | Herbicidal activity ABUTH (Abutilon theophrasti) [2, 4]: 100% | Herbicidal activity AMARE (Amaranthus retroflexus) [2, 4]: 100% | Herbicidal activity ECHCG (Echinochloa crus-galli) [2, 4]: 100% | Herbicidal activity MATIN (Matricaria inodora) [2, 4]: 100% | Herbicidal activity SETVI (Setaria viridis) [2, 4]: 90% | Herbicidal activity STEME (Stellaria media) [2, 4]: 100% | Herbicidal activity VERPE (Veronica persica) [2, 4]: 90% | Herbicidal activity VIOTR (Viola tricolor) [2, 4]: 100%

Cn1nnnc1NC(=O)c1ccc(C(F)(F)F)c2c1SCCCS2 [2-5]
Herbicidal activity ABUTH (Abutilon theophrasti) [1, 4]: 100% | Herbicidal activity AMARE (Amaranthus retroflexus) [1, 4]: 100% | Herbicidal activity ECHCG (Echinochloa crus-galli) [1, 4]: 100% | Herbicidal activity MATIN (Matricaria inodora) [1, 4]: 100% | Herbicidal activity STEME (Stellaria media) [1, 4]: 100% | Herbicidal activity VERPE (Veronica persica) [1, 4]: 100% | Herbicidal activity VIOTR (Viola tricolor) [1, 4]: 100% | Herbicidal activity ABUTH (Abutilon theophrasti) [2, 5]: 90% | Herbicidal activity AMARE (Amaranthus retroflexus) [2, 5]: 90% | Herbicidal activity ECHCG (Echinochloa crus-galli) [2, 5]: 90% | Herbicidal activity VIOTR (Viola tricolor) [2, 5]: 80%

Cn1nnnc1NC(=O)c1ccc(C(F)(F)F)c2c1[S+]([O-])CCCS2 (stereo not drawn) [2-76]
Herbicidal activity AMARE (Amaranthus retroflexus) [1, 4]: 90% | Herbicidal activity VIOTR (Viola tricolor) [1, 4]: 90% | Herbicidal activity ABUTH (Abutilon theophrasti) [2, 5]: 80% | Herbicidal activity ECHCG (Echinochloa crus-galli) [2, 5]: 90%

Cn1nnnc1NC(=O)c1ccc(C(F)(F)F)c2c1OCCCS2(=O)=O [2-19]
Herbicidal activity ABUTH (Abutilon theophrasti) [1, 3]: 100% | Herbicidal activity AMARE (Amaranthus retroflexus) [1, 3]: 100% | Herbicidal activity AVEFA (Avena fatua) [1, 3]: 80% | Herbicidal activity CYPES (Cyperus esculentus) [1, 3]: 100% | Herbicidal activity ECHCG (Echinochloa crus-galli) [1, 3]: 100% | Herbicidal activity MATIN (Matricaria inodora) [1, 3]: 100% | Herbicidal activity PHBPU (Ipomoea purpurea) [1, 3]: 100% | Herbicidal activity POLCO (Polygonum convolvulus) [1, 3]: 90% | Herbicidal activity SETVI (Setaria viridis) [1, 3]: 100% | Herbicidal activity STEME (Stellaria media) [1, 3]: 100% | Herbicidal activity VERPE (Veronica persica) [1, 3]: 100% | Herbicidal activity VIOTR (Viola tricolor) [1, 3]: 100% | Herbicidal activity ABUTH (Abutilon theophrasti) [2, 4]: 100% | Herbicidal activity AMARE (Amaranthus retroflexus) [2, 4]: 100% | Herbicidal activity ECHCG (Echinochloa crus-galli) [2, 4]: 100% | Herbicidal activity MATIN (Matricaria inodora) [2, 4]: 90% | Herbicidal activity SETVI (Setaria viridis) [2, 4]: 90% | Herbicidal activity STEME (Stellaria media) [2, 4]: 100% | Herbicidal activity VERPE (Veronica persica) [2, 4]: 100% | Herbicidal activity VIOTR (Viola tricolor) [2, 4]: 100%

Cn1nnnc1NC(=O)c1ccc(C(F)(F)F)c2c1OCCCS2 [2-13, 6-(trifluoromethyl)-3,4-dihydro-2H-1,5-benzoxathiepine-N-(1-methyltetrazol-5-yl)-8-carboxamide]
Herbicidal activity ABUTH (Abutilon theophrasti) [1, 3]: 100% | Herbicidal activity AMARE (Amaranthus retroflexus) [1, 3]: 100% | Herbicidal activity AVEFA (Avena fatua) [1, 3]: 100% | Herbicidal activity CYPES (Cyperus esculentus) [1, 3]: 90% | Herbicidal activity ECHCG (Echinochloa crus-galli) [1, 3]: 100% | Herbicidal activity MATIN (Matricaria inodora) [1, 3]: 100% | Herbicidal activity PHBPU (Ipomoea purpurea) [1, 3]: 100% | Herbicidal activity POLCO (Polygonum convolvulus) [1, 3]: 100% | Herbicidal activity SETVI (Setaria viridis) [1, 3]: 100% | Herbicidal activity STEME (Stellaria media) [1, 3]: 100% | Herbicidal activity VERPE (Veronica persica) [1, 3]: 100% | Herbicidal activity VIOTR (Viola tricolor) [1, 3]: 100% | Herbicidal action against ABUTH (Abutilon theophrasti) [1, 6]: 100% | Herbicidal action against ALOMY (Alopecurus myosuroides) [1, 6]: 100% | Herbicidal action against AVEFA (Avena fatua) [1, 6]: 100% | Herbicidal action against MATIN (Matricaria inodora) [1, 6]: 100% | Herbicidal action against SETVI (Setaria viridis) [1, 6]: 100% | herbicidal activity compared to that of compound No. A-117 ([1]; pre-emergence, comparative experiment, numerous harmful plants): superiority of the compound according to the invention was demonstrated clearly | Herbicidal activity ABUTH (Abutilon theophrasti) [2, 4]: 100% | Herbicidal activity AMARE (Amaranthus retroflexus) [2, 4]: 100% | Herbicidal activity ECHCG (Echinochloa crus-galli) [2, 4]: 100% | Herbicidal activity MATIN (Matricaria inodora) [2, 4]: 80% | Herbicidal activity SETVI (Setaria viridis) [2, 4]: 100% | Herbicidal activity STEME (Stellaria media) [2, 4]: 100% | Herbicidal activity VERPE (Veronica persica) [2, 4]: 100% | Herbicidal activity VIOTR (Viola tricolor) [2, 4]: 100% | Herbicidal action against ABUTH (Abutilon theophrasti) [2, 7]: 100% | Herbicidal action against ALOMY (Alopecurus myosuroides) [2, 7]: 90% | Herbicidal action against AVEFA (Avena fatua) [2, 7]: 100% | Herbicidal action against PHPBU [2, 7]: 90% | Herbicidal action against POLCO (Polygonum convolvulus) [2, 7]: 80% | herbicidal activity compared to that of compound No. A-117 ([2]; post-emergence, comparative experiment, numerous harmful plants): superiority of the compound according to the invention was demonstrated clearly
